Experimental data taken from patent US6706740B2, “Fungicidal heterocyclic aromatic amides and their compositions, methods of use and preparation” (Dow AgroSciences LLC, priority 1999, dated 2004).
Like-named read-outs stand apart in the source and are kept apart here.

Assays:
[1] = tested on: Ustilago maydis (USTIMA); experiment: microbe, parasite or virus in culture; format: cell-based; settings: for inhibition at 25 ppm: Mycosarcoma maydis, read-out: USTIMA in vitro Growth Inhibition
[2] = tested on: Mycosphaerella graminicola (Septoria tritici—SEPTTR); experiment: In vitro fungal growth inhibition, Mycosphaerella graminicola (SEPTTR); format: cell-based; settings: for inhibition at 25 ppm: Zymoseptoria tritici, read-out: SEPTTR in vitro Growth Inhibition
[3] = tested on: Phytophthora infestans—PHYTIN; experiment: whole plant or invertebrate; format: in vivo; settings: for pest or weed control at 100 ppm: Phytophthora, in Solanum lycopersicum, 24 h, read-out: PHYTIN in vivo 1 Day Protectant
[4] = tested on: Magnaporthe grisea (Pyricularia oryzae—PYRIOR); experiment: microbe, parasite or virus in culture; format: cell-based; settings: for inhibition at 25 ppm: Pyricularia oryzae, read-out: PYRIOR in vitro Growth Inhibition
[5] = tested on: Septoria tritici—SEPTTR; experiment: Leaf Blotch of Wheat, in vivo whole plant, 24 Hour Protectant; settings: control of fungal infection vs untreated plants; for pest or weed control at 100 ppm: Zymoseptoria tritici, 24 h, read-out: SEPTTR in vivo 1 Day Protectant
[6] = tested on: Rhizoctonia solani (RHIZSO); experiment: microbe, parasite or virus in culture; format: cell-based; settings: for inhibition at 25 ppm: Rhizoctonia solani, read-out: RHIZSO in vitro Growth Inhibition
[7] = tested on: Phytophthora infestans (PHYTIN); experiment: microbe, parasite or virus in culture; format: cell-based; settings: for inhibition at 25 ppm: Phytophthora infestans, read-out: PHYTIN in vitro Growth Inhibition
[8] = tested on: Erysiphe graminis—ERYSGT; experiment: Powdery Mildew of Wheat, in vivo whole plant, 24 Hour Protectant; settings: control of fungal infection vs untreated plants; for pest or weed control at 100 ppm: Erysiphe, read-out: ERYSGT in vivo 1 Day Protectant
[9] = tested on: Leptosphaeria nodorum—LEPTNO; experiment: Glume Blotch of Wheat, in vivo whole plant, 24 Hour Protectant; settings: control of fungal infection vs untreated plants; for pest or weed control at 100 ppm: Leptosphaeria, read-out: LEPTNO in vivo 1 Day Protectant
[10] = tested on: Stagonospora nodorum (Leptosphaeria nodorum—LEPTNO); experiment: In vitro fungal growth inhibition, Stagonospora nodorum (LEPTNO); format: cell-based; settings: for inhibition at 25 ppm: Leptosphaeria, read-out: LEPTNO in vitro Growth Inhibition
[11] = tested on: Puccinia recondita—PUCCRT; experiment: Brown Rust of Wheat, in vivo whole plant, 24 Hour Protectant; settings: control of fungal infection vs untreated plants; for pest or weed control at 100 ppm: Puccinia, read-out: PUCCRT in vivo 1 Day Protectant
[12] = wheat plants sprayed at 100 ppm, inoculated after 24 hours
[13] = 100 ppm spray, wheat, 24 hour protectant
[14] = 100 ppm spray, 24 hour protectant, wheat

| Compound | inhibition at 25 ppm [1] | inhibition at 25 ppm ([2]; 25 ppm in the growth medium) | pest or weed control at 100 ppm [3] | inhibition at 25 ppm [4] | pest or weed control at 100 ppm [5, 12] | inhibition at 25 ppm [6] | inhibition at 25 ppm [7] | pest or weed control at 100 ppm [8, 12] | pest or weed control at 100 ppm [9, 12] | inhibition at 25 ppm ([10]; 25 ppm in the growth medium) | pest or weed control at 100 ppm [11, 12] | inhibition at 25 ppm ([2]; 25 ppm in growth medium) | pest or weed control at 100 ppm [8, 13] | inhibition at 25 ppm ([10]; 25 ppm in growth medium) | also measured |
| --- | --- | --- | --- | --- | --- | --- | --- | --- | --- | --- | --- | --- | --- | --- | --- |
| COc1ccnc(C(=O)Nc2ccc(Oc3ccc(C(F)(F)F)cc3)nc2)c1O [Compound 472] | < 80% | < 80% | < 25% | > 80% | 25 to 74% | < 80% | < 80% | < 25% | 25 to 74% | < 80% | 25 to 74% | – | – | – | – |
| COC(=O)C(Cc1ccc(OCc2ccccc2)cc1)NC(=O)c1nccc(OC)c1O (single isomer, unassigned) [Compound 338] | > 80% | – | < 25% | < 80% | – | < 80% | < 80% | – | – | – | – | < 80% | < 25% | < 80% | pest or weed control at 100 ppm [5, 13]: 25 to 74%; LEPTNO in vivo 1 Day Protectant [9, 13]: + +; PUCCRT in vivo 1 Day Protectant [11, 13]: + + |
| CC(NC(=O)c1ccncc1O)c1ccc(OC(F)(F)F)cc1 (centres unmarked) [Compound 511] | < 80% | < 80% | < 25% | < 80% | < 25% | < 80% | < 80% | < 25% | < 25% | < 80% | < 25% | – | – | – | – |
| COc1ccnc(C(=O)N[C@@H]2CC(C)(C)C[C@](C)(C(=O)N(C)CCc3ccccc3)C2)c1O [Compound 263] | – | – | – | – | – | – | – | – | – | – | – | – | – | – | USTIMA in vitro Growth Inhibition [1]: − (key: +: at least 80% growth inhibition; −: less than 80% growth inhibition); SEPTTR in vitro Growth Inhibition ([2]; 25 ppm in growth medium): − (less than 80% growth inhibition); PHYTIN in vivo 1 Day Protectant ([3]; 100 ppm spray, 24 hour protectant, tomato, control of fungal infection vs untreated plants): − (<25% control of fungal infection); PYRIOR in vitro Growth Inhibition ([4]; 25 ppm in growth medium): − (less than 80% growth inhibition); SEPTTR in vivo 1 Day Protectant [5, 14]: − (<25% control of fungal infection); RHIZSO in vitro Growth Inhibition [6]: − (key: +: at least 80% growth inhibition; −: less than 80% growth inhibition); PHYTIN in vitro Growth Inhibition ([7]; 25 ppm in growth medium): − (less than 80% growth inhibition); ERYSGT in vivo 1 Day Protectant [8, 14]: − (<25% control of fungal infection); LEPTNO in vivo 1 Day Protectant [9, 14]: + (25-74% control of fungal infection); LEPTNO in vitro Growth Inhibition ([10]; 25 ppm in growth medium): − (less than 80% growth inhibition); PUCCRT in vivo 1 Day Protectant [11, 14]: − (<25% control of fungal infection) |
| COc1ccnc(C(=O)N[C@@H](Cc2ccc(OCc3ccccc3)cc2)C(=O)OCc2ccccc2)c1O [Compound 339] | < 80% | – | < 25% | < 80% | – | < 80% | < 80% | – | – | – | – | < 80% | < 25% | < 80% | SEPTTR in vivo 1 Day Protectant [5, 13]: + +; LEPTNO in vivo 1 Day Protectant [9, 13]: + +; PUCCRT in vivo 1 Day Protectant [11, 13]: + + |
| O=C(Nc1cccc(Oc2cccc(C(F)(F)F)c2)c1)c1nc(Br)ccc1O [Compound 495] | < 80% | < 80% | < 25% | < 80% | 25 to 74% | < 80% | < 80% | 25 to 74% | < 25% | < 80% | 25 to 74% | – | – | – | – |
| COc1ccnc(C(=O)Nc2ccc(Oc3cccc(Cl)c3)cc2)c1O [Compound 442] | < 80% | – | 25 to 74% | > 80% | – | < 80% | < 80% | – | – | – | – | > 80% | < 25% | > 80% | pest or weed control at 100 ppm [5, 13]: < 25%; pest or weed control at 100 ppm [9, 13]: < 25%; pest or weed control at 100 ppm [11, 13]: 25 to 74% |
